Source: PMC5442763, “Selective Inhibition of ADAM17 Efficiently Mediates Glycoprotein Ibα Retention During Ex Vivo Generation of Human Induced Pluripotent Stem Cell‐Derived Platelets” (Stem Cells Translational Medicine, 2016)

Experiments:
[1] = tested on: dogs; test: Good laboratory practice systemic toxicity study in dogs; format: in vivo; conditions: intravenously once a day for 4 weeks, doses up to 3 mg/kg (maximal dose tested), data not shown
[2] = target: T1, Human ADAM17 (Homo sapiens, UniProt P78536); test: Cleavage of GPIbα-based substrate peptide by ADAM17 (LC/MS/MS); format: biochemical; conditions: GPIbα-based substrate peptide, LC/MS/MS; read-out: IC50, inhibition of C-terminal cleavage of the GPIbα sequence by ADAM17
T1 construct: purchased R&D Systems
T1 sequence (P78536 215-824): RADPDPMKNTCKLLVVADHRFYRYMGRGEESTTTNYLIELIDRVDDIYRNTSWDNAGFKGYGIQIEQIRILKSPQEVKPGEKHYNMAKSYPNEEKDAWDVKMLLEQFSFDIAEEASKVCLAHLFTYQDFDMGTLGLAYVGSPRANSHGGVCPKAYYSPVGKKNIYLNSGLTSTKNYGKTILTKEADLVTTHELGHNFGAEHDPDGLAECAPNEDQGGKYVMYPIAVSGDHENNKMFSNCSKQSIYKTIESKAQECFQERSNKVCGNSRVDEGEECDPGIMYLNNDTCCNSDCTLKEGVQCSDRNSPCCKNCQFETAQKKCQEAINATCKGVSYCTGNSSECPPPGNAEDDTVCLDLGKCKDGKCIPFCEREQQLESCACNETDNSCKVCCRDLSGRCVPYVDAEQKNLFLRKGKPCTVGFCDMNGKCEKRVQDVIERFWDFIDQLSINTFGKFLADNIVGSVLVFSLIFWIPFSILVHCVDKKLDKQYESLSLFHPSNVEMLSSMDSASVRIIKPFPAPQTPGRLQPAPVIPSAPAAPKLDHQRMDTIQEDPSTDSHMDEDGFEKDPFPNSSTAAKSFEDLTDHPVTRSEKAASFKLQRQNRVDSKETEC
Description: (§1) Human ADAM17, ADAM10, and MMP17 were from R&D Systems (Minneapolis, MN, http://www.rndsystems.com), and human MMP1, MMP2, MMP3, MMP8, MMP9, MMP13, and MMP14 were from EMD Millipore. MMP1, MMP2, MMP8, MMP9, MMP13, and MMP17 were activated using p‐aminophenylmercuric acetate (Sigma‐Aldrich) before testing. Fluorogenic substrates for measuring activity of ADAM10 and ADAM17 [Nma‐[…](Dnp)r‐NH2, based on the cleavage site of TNF‐α]; MMP1, MMP9, MMP13, and MMP14 [Dnp‐P‐Cha‐GC(Me)HAK(N‐Me‐Abz)‐NH2]; MMP3 [MOCAc‐RPKPVE‐Nva‐WRK(Dnp)‐NH2]; and MMP2, MMP8, and MMP17 [MOCAc‐PLGL‐A2pr(Dnp)‐AR‐NH2] were all provided by Peptide Institute (Osaka, Japan, https://www.peptide.co.jp/en) and used as substrates. In addition, inhibitory activities were measured using LC/MS/MS with a GPIbα‐based substrate peptide ([…]), a C terminal‐based standard peptide ([…]), and an internal standard peptide ([…]). These peptides were synthetized by Scrum (Tokyo, Japan, http://www.scrum‐net.co.jp/english/top_en.htm).
(1 picture or pasted object on this page, not shown here)

[3] = target: T2, human MMP8 (Homo sapiens, UniProt P22894); test: MMP and ADAM activity assay (fluorescence-based): MMP8; format: biochemical; conditions: cell-free fluorescence assay
T2 construct: purchased EMD Millipore
T2 sequence (P22894 101-467): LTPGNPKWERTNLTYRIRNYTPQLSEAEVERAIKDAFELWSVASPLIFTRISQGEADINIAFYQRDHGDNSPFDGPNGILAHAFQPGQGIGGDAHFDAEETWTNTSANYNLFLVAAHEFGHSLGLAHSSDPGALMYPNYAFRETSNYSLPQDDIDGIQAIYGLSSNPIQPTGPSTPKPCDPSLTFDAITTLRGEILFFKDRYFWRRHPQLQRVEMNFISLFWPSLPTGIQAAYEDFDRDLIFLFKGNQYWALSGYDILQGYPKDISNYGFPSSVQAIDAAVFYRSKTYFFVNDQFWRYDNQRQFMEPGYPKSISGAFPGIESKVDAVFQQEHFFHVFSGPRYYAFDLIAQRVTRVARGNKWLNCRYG
Description: as §1

[4] = tested on: iPSC platelets, vWF/GPIbα-dependent aggregation; test: Flow cytometry-based platelet aggregation assay (ristocetin); format: cell-based, human; conditions: 15 µmol/l KP-457 during generation; 2 mg/ml ristocetin; vs. generated in its absence
Experimental: Flow cytometry platelet aggregation assays were performed as recently described. Aliquots of iPSC platelets, imMKCL platelets, or fresh washed human platelets were stained with anti‐CD9‐APC or anti‐CD9‐V450, and CD41a^+ platelets were counted using flow cytometry. Next, aliquots of platelets stained using anti‐CD9‐APC were mixed with platelets stained using anti‐CD9‐V450 at a 1:1 ratio (1–4 ×10^5 cells/ml each) and suspended in Tyrode‐HEPES solution containing […] PPACK (a thrombin inhibitor), 10% filtered human plasma, and 3 mmol/l CaCl2. The mixed platelets were stimulated with 2 mg/ml ristocetin or 100 µmol/l TRAP6 and 50 µmol/l ADP for 10 minutes at 37°C while swirling, fixed, and analyzed using flow cytometry. To quantify platelet aggregation, an index of double‐colored events (%) was calculated using the following formula described elsewhere: […]

[5] = tested on: thrombus formation in NOG mice; test: In vivo imaging of thrombus formation by transfused iPSC platelets; design: species or system mouse; conditions: 1 × 10^7 CD41a+ iPSC platelets generated with or without KP-457, irradiated NOG mice, laser injury; p = .0556
Experimental: The procedure was identical to that in the previous report. Small vessels (<25 μm in diameter) within mesenteric capillaries of male NOD/SCID/IL‐2Rg‐null (NOG) mice were evaluated. NOG mice were purchased from the Central Institute for Experimental Animals (Kawasaki, Kanagawa, Japan, http://www.ciea.or.jp/en/index.html).

[6] = target: T3, human MMP9 (Homo sapiens, UniProt P14780); test: MMP and ADAM activity assay (fluorescence-based): MMP9; format: biochemical; conditions: cell-free fluorescence assay
T3 construct: purchased EMD Millipore
T3 sequence (P14780 107-707 limits assumed): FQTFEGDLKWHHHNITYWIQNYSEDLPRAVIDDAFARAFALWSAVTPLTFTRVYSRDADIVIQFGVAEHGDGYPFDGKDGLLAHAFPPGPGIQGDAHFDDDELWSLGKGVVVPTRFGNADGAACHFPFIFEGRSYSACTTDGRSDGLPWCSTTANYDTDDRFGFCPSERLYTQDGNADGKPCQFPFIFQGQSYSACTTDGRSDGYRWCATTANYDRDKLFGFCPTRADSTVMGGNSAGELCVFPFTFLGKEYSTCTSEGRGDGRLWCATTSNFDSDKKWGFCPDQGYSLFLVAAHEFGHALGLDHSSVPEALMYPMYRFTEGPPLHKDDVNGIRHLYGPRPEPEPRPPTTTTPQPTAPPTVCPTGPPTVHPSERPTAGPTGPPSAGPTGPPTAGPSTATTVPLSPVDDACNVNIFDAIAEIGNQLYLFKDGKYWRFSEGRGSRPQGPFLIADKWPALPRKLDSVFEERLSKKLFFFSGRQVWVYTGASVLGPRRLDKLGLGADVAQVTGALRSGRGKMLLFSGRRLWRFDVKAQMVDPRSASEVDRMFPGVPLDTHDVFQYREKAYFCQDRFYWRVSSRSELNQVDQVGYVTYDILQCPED
Description: as §1

[7] = tested on: human iPSC-derived MKs and platelets; test: Generation of MKs and platelets from human iPSC-derived HPCs at 37°C, flow cytometry; format: cell-based
Experimental: (§2) Directed differentiation to MKs and platelets from iPSCs and ESCs was performed as described previously. Briefly, 3 × 10^4 HPCs derived from iPS‐sacs on C3H10T1/2 feeder cells in the presence of 20 ng/ml vascular endothelial growth factor were transferred on day 14 of culture onto C3H10T1/2 feeder cells in differentiation medium supplemented with 50 ng/ml stem cell factor, 100 ng/ml thrombopoietin, 25 U/ml heparin sodium, and test compounds at 24°C or 37°C. The medium was refreshed every 3 days, and nonadherent cells were collected and analyzed on days 22–24.
(§3) Flow cytometric analysis was performed as previously described. Briefly, iPSC‐ and ESC‐derived MKs on days 22–24 and platelets in their supernatants were stained with combinations of antibodies for 30 minutes on ice (for MKs) or at room temperature (for platelets). Samples of MKs/platelets were then washed, diluted with staining medium (phosphate‐buffered saline containing 3% fetal bovine serum), and analyzed using flow cytometry (FACSAria; BD). Trucount tubes (BD) were used to quantify the MKs and platelets.

[8] = tested on: imMKCL platelets; test: GPIbα retention in imMKCL-derived platelets; format: cell-based, human
Experimental: imMKCL expansion and subsequent platelet production were performed as previously reported. Briefly, imMKCLs were cultured in the presence of doxycycline for self‐replication by the expression of three doxycycline‐regulated transgenes: c‐MYC, BMI1, and BCL‐XL. imMKCLs were subsequently cultured for 5 days in the absence of doxycycline to produce platelets by turning the transgenes off, with or without 15 µmol/l KP‐457.
as §3
Fig. S4. The inhibitory effect of KP-457 on GPIbα shedding in platelets derived from human ESCs and immortalized megakaryocyte progenitor cell lines (imMKCLs).
Percentages of GPIbα-expressing CD41a+ platelets produced from human ESCs (A) and immortalized megakaryocyte progenitor cell lines (imMKCLs) (B), in the absence or presence of KP-457 (15 µmol/L). * P < 0.05 compared to the vehicle group by student’s t test, N≧3. […]

[9] = tested on: platelets derived from human ESCs; test: GPIbα retention in platelets derived from human ESCs; format: cell-based; conditions: KP-457 15 µmol/L
Experimental: as §2, §3
Fig. S4. The inhibitory effect of KP-457 on GPIbα shedding in platelets derived from human
ESCs and immortalized megakaryocyte progenitor cell lines (imMKCLs).
Percentages of GPIbα-expressing CD41a+ platelets produced from human ESCs (A) and […]

[10] = KP-457 15 μmol/l, GM-6001 50 μmol/l, p38 MAP kinase inhibitor 10 μmol/l

In the case of CC#CCOc1ccc(S(=O)(=O)CC(c2ccc(CNS(C)(=O)=O)cc2)N(O)C=O)cc1 (centres unmarked) [KP-457, N‐(2‐{[4‐(but‐2‐yn‐1‐yloxy)phenyl]sulfonyl}‐1‐[4‐(methylsulfonamidomethyl)phenyl]ethyl)‐N‐hydroxyformamide], the systemic toxicity [1] is reported as “neither genotoxicity nor systemic toxicity”, the IC50 [2] is reported as 10.6 nM and the IC50 [3] is reported as 2200 nM. The “ristocetin-induced vWF/GPIbα-dependent aggregation of iPSC platelets generated with inhibitor” value [4] was “greater aggregation capability”, the “iPSC platelets contributing to thrombus formation in vivo” value [5] was “higher number of iPSC platelets contributed to thrombus formation” and the IC50 [6] was 5410 nM. The “number of CD41a+ total iPSC platelets” value [7, 10] was “no significant effect”, the “retention of GPIbα expression on CD41a+ iPSC-derived platelets” value [7, 10] was “able to retain” and the “number of CD41a+ iPSC-derived MKs” value ([7]; KP-457 15 μmol/l, GM-6001 50 μmol/l, p38 MAP kinase inhibitor 10 μmol/l, MK differentiation and platelet production phases) was “no significant effect”. For the same compound, the “GPIbα+ population in human iPSC-derived CD41a+ platelets” value ([7]; KP-457 15 μmol/l, representative FACS plot, vehicle 48.3%) was 80.7%, the “GPIbα retention by iPSC-derived platelets, inhibitor only during platelet production phase” value ([7]; days 21–23 or 24, KP-457 15, BIRB796 10, U0126 10, BMS345541 10, Z-VAD 10, Ro31-8220 3 μmol/l) was “more effectively sustained” and the “GPIbα expression on platelets under static culture” value ([8]; 3 days, 37°C, in the presence of KP-457, data not shown) was “highly maintained”. The “GPIbα retention in platelets derived from imMKCLs” value ([8]; KP-457 15 µmol/L) was “consistently observed” and the “GPIbα retention in platelets derived from human ESCs” value [9] was “consistently observed”.
